Each structure is given as a SMILES string.

The test system of experiment [1] is C57bl6j mice. The experiment can be described thus: Lipid excretion in feces of mice fed a high fat diet. The class given is in vivo. From the text:
(§1) Adult male […] purchased at 8 week of age from Janvier Elevage (Le Genest-St-Isle, France) were individually housed and maintained ad libitum on high fat diet and water for 2 weeks. Seven mice were randomly allocated in 3 groups and fed with a high fat diet (lipids represented 50% of daily energy) during 2 weeks. For one kilogram, the composition of the high fat diet was: 235 g of casein, 201 g of saccharose, 3.5 g L-cystine, 85 g of starch, 116 g of maltodextrine, 60 g of cellulose, 12 g of vitamins mix, 51.5 g de mineral mix and 236 g of lard and 13 g of canola oil (UPAE, Jouy en Josas, France). Then, N-oleoyl-ethanolamide or (Z)-(R)-9-octadecenamide, N-(2-hydroxyethyl, 1-methyl) was added to the diet at the concentration of 100 mg/kg/bw. The mice are kept under treatment during 4 weeks. During the nutritional intervention, daily food intake has been monitored and the mice were weighted 3 times per week. During the last week of the experiment, the mice were kept during 5 days in metabolic cages to collect urine and feces. Lipids were extracted from feces after acidification using chloridric acid using chloroform/methanol (2:1 v/v) method. Total lipids were weighted, results were reported in mg of lipids per g of feces weight. Fat absorption was assessed using the following formula: Fat Absorption (% intake)=100*((Fat intake, g/d-fecal fat excretion, g/d)/fat intake). Example 1 was repeated except that N-oleoyl-ethanolamide as added to the diet at two different concentrations (0.1 or 1 g/kg/bw).

In experiment [2] the test system is C57bl6j mice. In words: Intestinal lipid (fat) absorption in mice fed a high fat diet. The class given is in vivo.
Description: as §1

The mark [3] stands for this setting: given orally in diet at 0.1 g/kg/bw (group C1 of Table 2), Example 2.
Where [4] appears, read: given orally in diet at 100 mg/kg/bw, 4 weeks, feces collected over 5 days in last week, Example 1.
Setting [5] is: given orally in diet at 1 g/kg/bw (group C2 of Table 2), Example 2.
Where [6] appears, read: given orally in diet at 100 mg/kg/bw, 4 weeks, Fat Absorption (% intake), Example 1.

In the case of `CCCCCCCC/C=C\CCCCCCCC(=O)NCCO` [C1, N-oleoyl-ethanolamide], the “Lipid Excretion (mg/g of Feces) MV” value is recorded as 55.31 mg/g of Feces in experiment [1] (setting [3]), 53.7 mg/g of Feces in experiment [1] (setting [4]) and 45.56 mg/g of Feces in experiment [1] (setting [5]). The “Intestinal Lipid Absorption (%) MV” value in experiment [2] (setting [3]) is on record as 97.4%; in experiment [2] (setting [6]), 95.61%; in experiment [2] (setting [5]), 97.76%.
For `CCCCCCCC/C=C\CCCCCCCC(=O)N[C@H](C)CO` [C2, (Z)-(R)-9-octadecenamide, N-(2-hydroxyethyl,1-methyl)], in experiment [1] (setting [4]), the “Lipid Excretion (mg/g of Feces) MV” value is 65.6 mg/g of Feces. In addition, the “Intestinal Lipid Absorption (%) MV” value in experiment [2] (setting [6]) stood at 95.05%.

Values taken from US20110165198A1, “METHOD FOR REDUCING LIPID ABSORPTION BY AN ANIMAL” (priority 2008, published 2011).
